Data reported in patent publication US20050054620A1, “Paricalcitol as a chemotherapeutic agent” (priority 2003, published 2005).

Assays:
[1] = system: mononuclear bone marrow cells from wild type (WT) mice; test: Colony-forming assay in methylcellulose, wild type mice; type: cell-based; details: 10^−8 M
From the text: In FIG. 6D, colony formation by mononuclear bone marrow cells from VDR knock-out (VDR-KO) and wild type (WT) mice is shown. Mononuclear cells were obtained from femoral bone marrow plugs and grown in methylcellulose culture media with either paricalcitol (10^−8M) or diluant. Colonies were counted on day 10 of culture. The number of total colonies (average) were 87 (control) and 66 (paricalcitol 10^−8M) in wild type mice, and 110 (control) and 122 (paricalcitol 10^−8M) in VDR-KO mice. The percentage of macrophage, granulocyte and mixed granulocyte/macrophage colonies are shown. Triplicate wells for each mouse and a total of three KO and three WT mice were studied. G, granulocyte colonies; G/M mixed granulocyte/macrophage colonies; M, macrophage colonies.
The VDR KO Mouse and Colony-Forming Assay was performed as follows. VDR KO mice were generated and genotypes were determined by Southern Blot Analysis as described previously (O'Kelly et al., supra, 2002). For experiments using VDR KO mice, their wild-type (WT) littermates were used as controls. Mice were killed by cervical neck dislocation. Bone marrow was flushed out of isolated femurs with (a-MEM; Gibco BRL, Grand Island, N.Y., USA) including 10% FCS using a 26-gauge needle. Isolated spleens were injected with DMEM (Gibco BRL) plus 10% FCS and crushed with forceps to release cells. Mononuclear cells from bone marrow or spleen were separated by Ficoll-Hypaque density centrifugation (Amersham Pharmacia, Uppsala, Sweden). Resuspended mononuclear bone marrow cells (2×10^4 cells/ml) and growth factors were added 1:10 to methylcellulose medium M3234 (StemCell Technologies Inc., Vancouver, British Columbia, Canada) to yield a final concentration of 1% methylcellulose, 30% FCS, 1% BSA, 10^-4M mercaptoethanol, and 2 mM L-glutamine as described previously (19). Cells were plated in six-well plates in a volume of 1 ml and incubated at 37° C. in a humidified atmosphere containing 5% CO2. Colonies were counted after 2 weeks. Colony type was established by morphology; and to ensure accurate determination, representative colonies were plucked from the plates, centrifuged onto slides, stained with Wright-Giemsa stain and examined by light microscopy.

24-hydroxylase mRNA = test: RT-PCR of 24-hydroxylase mRNA in NB-4 cells; type: cell-based, human; details: paricalcitol 0.1 μM, arsenic trioxide 0.6 μM, after 24 hrs
Description: HL-60 and NB-4 myeloid leukemia cell lines were treated with paricalcitol (0.01 μM for HL-60, 0.1 μM for NB-4) and/or arsenic trioxide (0.8 μM for HL-60, 0.6 μM for NB-4). Control cells were treated with vehicle alone. […] Cell lysates were also made and used for Western blot which was probed with antibodies to C/EBPβ. (B) Cell lysate of HL-60 cells were made after 3 days and used for Western blot which was probed sequentially with antibodies to Bcl-2, BclXL and Bax (C) Cell lysates of HL-60 cells were made after 1, 2 or 3 days and used for Western blot which was probed sequentially with antibodies to phosphorylated ERK. (D) After pretreatment either with or without […] of PD98059 for 1 hour, HL-60 cells were treated with paricalcitol (0.01 μM) and/or arsenic trioxide (0.8 μM) for 2 days. Control cells were treated with vehicle alone. CD14 expression was measured by flow cytometry.
In FIG. 6B, HT-29 colon cancer cells were treated with paricalcitol (10^−7M) for 0, 6, 12 or 24 hrs and RNA was harvested. Expression of 24 hydroxylase mRNA was analysed by RT-PCR. The amounts of mRNA were normalized by comparison to 18S RNA. In FIG. 6C, mononuclear cells extracted from spleens of either wild type or VDR knock-out mice were treated with paricalcitol (10^−8M) for either 12 or 24 hrs, and RNA was harvested. Expression of 24 hydroxylase mRNA was analysed by RT-PCR. […]

With `C[C@H](/C=C/[C@H](C)C(C)(C)O)[C@H]1CC[C@H]2/C(=C/C=C3C[C@@H](O)C[C@H](O)C3)CCC[C@]12C` [paricalcitol, 19-nor-1,25, (OH)2D3] as the compound, how does the “percentage of granulocyte colonies” value ([1]; control 23±4%) read?
The value was 6±3%.

What about the “percentage of macrophage colonies” value ([1]; control 32±4%) of the same compound?
Its value is 69±2%.

What about the “percentage of mixed colonies” value ([1]; control 43±7%) of the same compound?
Its value is 25±5%.

What about the “number of total colonies (average)” value ([1]; control 87) of the same compound?
Its value is 66.

What about the “mRNA levels of 24-hydroxylase” value (24-hydroxylase mRNA) of the same compound?
The value was “increased”.
